# Experimental data reported in patent US9737523B2, “Anti-fibrogenic compounds, methods and uses thereof” (priority 2013, dated 2017).
# Tests used:
# [1] = test system: human dermal fibroblasts; assay: MTT proliferation assay of human dermal fibroblasts; assay type: cell-based; conditions: up to 150 μg/ml, 48 hours
# Description: The effect of kynurenine on human dermal fibroblast proliferation was detected by MTT [3-(4,5-Dimethylthiazol-2-yl)-2,5-diphenyltetrazolium bromide] assay. In brief, 10,000 cells were seeded on a 24 well-plate and incubated with different concentrations of kynurenine for 48 hours. Media were removed and 0.2 ml of MTT (5 mg/ml in DMEM containing 2% FBS) was added. Cells were incubated with MIT for 4 hours. After washing 3 times with PBS, 0.2 ml of DMSO was added to dissolve the crystals. Absorbance was measured at 570 nm.
# [2] = test system: MMP-2; assay: MMP-2 expression in human dermal fibroblasts, Western blot; assay type: cell-based; conditions: various concentrations, 48 hours
# Description: In another set of experiments, fibroblasts at 80% confluence were treated with either kynurenine or tryptophan at the indicated concentrations as mentioned in the result section in DMEM containing 2% FBS and antibiotics for 48 hours. Cells were then harvested by trypsinization and western blot analysis was performed.
# (§1) Cells were harvested by Trypsin/EDTA and lysed with cell lysis buffer containing 50 mM Tris-HCl (pH7.40), 150 mM NaCl, 10 mM EDTA, 5 mM EGTA, 1% TritonX-100™, 0.5% Igepal CA-630, 0.025% NaN3 and protease inhibitor cocktail (Sigma™). Cell debris was removed by centrifugation at 20,000×g for 10 minutes. The protein concentration in supernatant was determined using the MicroBCA™ method (Pierce™, Rockford, Ill.). Proteins in supernatant were mixed with protein sample loading buffer (final concentration: 60 mM Tris-HCl (pH 6.80), 2% SDS, 10% glycerol, 1.5% β-mercaptoethanol, 0.002% bromophenol blue) and size fractioned by 10% of SDS-polyacrylamide gel. After proteins were transferred onto nitrocellulose membrane by iBlot™ (Invitrogen Life Technologies™), non-specific binding were blocked with phosphate buffer saline twenty 20 (PBS-T) containing 5% skim milk for 1 hour. The membrane was then incubated with primary antibody overnight. […]
# [3] = test system: type 1 procollagen; assay: Type 1 procollagen expression in dermal fibroblasts, Western blot; assay type: cell-based, human; conditions: 25-150 μg/ml, 48 hours
# Description: Cell debris was removed by centrifugation at 20,000×g for 10 minutes. The protein concentration in supernatant was determined using the MicroBCA™ method (Pierce™, Rockford, Ill.). Proteins in supernatant were mixed with protein sample loading buffer (final concentration: 60 mM Tris-HCl (pH 6.80), 2% SDS, 10% glycerol, 1.5% β-mercaptoethanol, 0.002% bromophenol blue) and size fractioned by 10% of SDS-polyacrylamide gel. After proteins were transferred onto nitrocellulose membrane by iBlot™ (Invitrogen Life Technologies™), non-specific binding were blocked with phosphate buffer saline twenty 20 (PBS-T) containing 5% skim milk for 1 hour. The membrane was then incubated with primary antibody overnight. After incubation with a secondary antibody for 1 hour, protein bands were visualized by an enhanced chemiluminescence (ECL™) detection system (Santa Cruz Biotechnology™, Santa Cruz, Calif.). […] The secondary antibodies were either goat anti-mouse IgG (H+L) HPR conjugate or goat anti-rabbit IgG (H+L) HPR conjugate (Bio-rad Laboratory™ (Mississauga, ON, Canada). Secondary antibodies were used at a concentration of 1:3000.
# [4] = test system: UMSCC; assay: MMP-1 expression in squamous cell carcinoma cell line UMSCC, Western blot; assay type: cell-based, human; conditions: 12.5 to 150 μg/ml, 48 hours
# Description: The squamous cell carcinoma (UMSCC) cell line derived from patients with head and neck cancer (ATCC™, Manassas, Va.) were maintained in RPMI-1640 medium with 10% FBS. The Human keratinocyte cell line HACAT (ATCC) and the carcinomic human alveolar basal epithelial cell line A549 (ATCC™) were cultured in DMEM with 10% FBS. The diploid lung fibroblasts IMR-90 (ATCC™) were maintained in Minimum Essential Medium (MEM, Invitrogen™) with 10% FBS.
# (§2) Similarly, other cells such as synoviocytes, IMR-90, keratinocytes, UMSCC and A549 were treated with kynurenine at concentrations of 12.5 to 150 μg/ml in appropriate media for each cell type as described above for 48 hours. Cells were then harvested for western blot analysis.
# as §1, with “gel.” for “gel. After proteins were transferred onto nitrocellulose membrane by iBlot™ (Invitrogen Life Technologies™), non-specific binding were blocked with phosphate buffer saline twenty 20 (PBS-T) containing 5% skim milk for 1 hour. The membrane was then incubated with primary antibody overnight.”
# [5] = test system: synoviocytes; assay: MMP-1 expression in synoviocytes, Western blot; assay type: cell-based, human; conditions: 12.5 μg/ml to 150 μg/ml, 48 hours
# Description: Synoviocytes were obtained by enzymatic digestion of synovial membrane from patients with rheumatoid arthritis during joint replacement with 1 mg/ml collagenase (Sigma™) in RPMI1640 (Invitrogen Life Technologies™) for 4 hours at 37° C. Dissociated cells were plated in synoviocyte growth medium (Cell Applications Inc.™, San Diego, Calif.) supplemented with penicillin G sodium (100 U/mL), streptomycin sulfate (100 μg/mL), and amphotericin B (0.25 μg/mL).
# as §2
# as §1, with “gel.” for “gel. After proteins were transferred onto nitrocellulose membrane by iBlot™ (Invitrogen Life Technologies™), non-specific binding were blocked with phosphate buffer saline twenty 20 (PBS-T) containing 5% skim milk for 1 hour. The membrane was then incubated with primary antibody overnight.”
# [6] = test system: MEK; assay: MEK phosphorylation in dermal fibroblasts, Western blot; assay type: cell-based, human; conditions: 100 μg/ml
# Description: as §1, with “overnight. After incubation with a secondary antibody for 1 hour, protein bands were visualized by an enhanced chemiluminescence (ECL™) detection system (Santa Cruz Biotechnology™, Santa Cruz, Calif.).” for “overnight.”
# [7] = test system: ERK1/2; assay: Human phospho-kinase array in dermal fibroblasts; assay type: cell-based; conditions: 100 μg/ml, after 1 hour of treatment
# Description: Protein phosphorylation was evaluated using the Human Phospho-Kinase Array™ (R&D System™) according to the manufacturer's instructions. Briefly, capture and control antibodies were spotted in duplicate on nitrocellulose membranes (total 46 kinase phosphorylation sites). Cell lysates (300 μg of total protein per array) were incubated with array overnight. The array was washed to remove unbound proteins, followed by incubation with the cocktail of biotinylated detection antibodies. After incubation with streptavidin-HPR for 30 minutes, signals were visualized by ECL detection system (Santa Cruz™). Blots were analyzed by densitometry, and protein Phosphorylation was Normalized to a Positive Control which was Represented in Each Membrane.
# [8] = test system: mouse splenocytes; assay: Immune factor protein microarray of conditioned media of ConA-activated splenocytes; assay type: cell-based; conditions: 100 μg/mL, 48 hrs
# [9] = test system: fibronectin; assay: Fibronectin mRNA in human dermal fibroblasts, real-time PCR; assay type: cell-based; conditions: various concentration
smiles,measurement,setting,value
Nc1ccccc1C(=O)CC(N)C(=O)O (racemic) [kynurenine],fibroblast proliferation (MTT),[1],no significant effect
same,MMP-2 expression versus untreated fibroblasts,[2],no significant difference
same,expression of type 1 procollagen,[3],remarkably decreases
same,MMP-1 expression versus untreated controls,[4],did not significantly differ
same,MMP-1 expression,[5],up-regulated
same,time of peak MEK activation,[6],8 h
same,MEK phosphorylation,[6]; different times,detection of the ERK1/2 upstream signal molecule MEK phosphorylation
same,ERK1/2 activation (phospho-kinase array),[7],activated
same,IL-17 production,[8],significantly decrease
same,"proinflammatory cytokine and chemokine production (IL-1, IL-2, CXCL9, CXCL10)",[8],immune suppressive effect
same,fibronectin expression (mRNA),[9],capable of down-regulating
